Laboratory results reported in patent publication US8242151B2, “Tricyclic compounds” (Kyowa Hakko Kirin Co., Ltd., priority 2007, dated 2012).

Tests used:
[1] = tested on: spontaneously hypertensive rats (SHR); assay: Antihypertensive action by tail cuff method; assay type: in vivo, rat; details: oral once a day for 7 days, about 4 to 9 hr after final administration
Description: 18- to 22-week-old spontaneously hypertensive rats (SHR) were used.
Before drug administration, the body weight, blood pressure and heart rate of each rat were measured, and the rats were grouped such that these values are almost the same between groups. A solvent (0.5% methylcellulose solution) and a test compound were repeatedly administered orally once a day for 7 days. At about 4 to 9 hr after the final administration, systolic blood pressure and heart rate were non-invasively measured according to the following.
The rats were placed in a cylindrical restrainer, heated to 37° C., and blood pressure and heart rate were measured under resting state using a Tail Cuff Method. For the measurement, a non-invasive blood pressure measurement apparatus (PS-600, Riken Kaihatsu, Tokyo) was used. The blood pressure and heart rate of each rat was measured 5 times, and the average was taken as the value of each rat.

[2] = target: T1, GAL4-PPARγ chimeric nuclear receptor (human PPARγ ligand binding region) (Homo sapiens, UniProt P37231); assay: Transactivation assay of PPARγ by transient gene transfer (GAL4-PPARγ luciferase reporter); assay type: cell-based; details: HEK293EBNA cells, 24 hr; concentration showing 50% of efficacy; activity relative to pioglitazone 10 μmol/L = 100%
T1 construct: expressed in transfected cells; host or cells: HEK293EBNA cells
T1 sequence (P37231 174-475 isoform P37231-2): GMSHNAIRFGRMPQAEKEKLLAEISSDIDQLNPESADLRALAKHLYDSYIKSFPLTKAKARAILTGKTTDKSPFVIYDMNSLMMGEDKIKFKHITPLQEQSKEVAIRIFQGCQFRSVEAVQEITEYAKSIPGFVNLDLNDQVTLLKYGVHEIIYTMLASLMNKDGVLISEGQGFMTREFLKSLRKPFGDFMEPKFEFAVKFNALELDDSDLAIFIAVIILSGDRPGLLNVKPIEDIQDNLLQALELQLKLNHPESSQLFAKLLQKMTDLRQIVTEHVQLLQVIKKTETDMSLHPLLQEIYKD
Description: The agonist activity of compound (I) to PPARγ was determined by a transactivation assay method using a chimeric nuclear receptor of a DNA binding region of a yeast transcription factor GAL4 and a PPARγ ligand binding region. Specifically, the PPARγ agonist activity of compound (I) was evaluated by the following method based on the method of Lehmann et al. (J Biol. Chem., 1995, vol. 270, page 12953).
HEK293EBNA cells cultured in Dulbecco's Modified Eagle medium (Invitrogen) containing 10 v/v % fetal calf serum (Invitrogen) were used. 30 mL of the above-mentioned cells (density: 1×10^5 cells/mL) were inoculated in a […] culture dish (Iwaki Glass), and cultured overnight. Using SuperFect Transfection Reagent (QIAGEN), a plasmid expressing a GAL4-PPARγ chimeric nuclear receptor fusing 174-475 amino acids, which are human PPARγ ligand binding region, and 1-147 amino acids, which are GAL4 DNA binding region, and a reporter plasmid expressing a GAL4 responsive luciferase were transiently introduced into the cells at a proportion of 4:1. After 5 hr from gene introduction, the cells were detached from the culture dish, and the detached cells (density: 2×10^4 cells/mL) were inoculated by 100 μL in each well of a 96 well white plate (SUMITOMO BAKELITE), and cultured overnight. The medium was removed, compound (I) diluted in various concentrations with serum-free Dulbecco's Modified Eagle medium was added by 100 μL, and the mixture was reacted under a 5% carbon dioxide gas stream (5% CO2) at 37° C. for 24 hr. On the other hand, as a positive control, 10 μmol/L of pioglitazone (100 μL) was added, and the mixture was reacted under a 5% carbon dioxide gas stream (5% CO2) at 37° C. for 24 hr. As a substrate of luciferase, 100 μL of Steady-Glo (Promega) was added to each well and the mixture was thoroughly stirred. Immediately thereafter, the chemical luminescence due to luciferase was measured using TopCount NTX (Packard).
The agonist activity (activity rate (%)) of compound (I) to PPARγ was calculated according to the following formula, as a relative activity when the agonist activity on addition of pioglitazone (10 μmol/L) was 100%.

[3] = tested on: spontaneously hypertensive rats (SHR); assay: Antihypertensive action by telemetry method; assay type: in vivo, rat; details: oral once a day for 4 days, 24 hr averages
Source text: A telemetry transmitter was indwelled in the abdominal artery of spontaneously hypertensive rats (SHR), and the blood pressure and heart rate were monitored. The rats were acclimated and reared for 4 weeks or more, and only the rats with hypertension were used for the test. Before drug administration, the rats were grouped such that the blood pressure and heart rate of each rat would be of the same levels between the groups. A solvent (0.5% methylcellulose solution) and a test compound were repeatedly administered orally once a day for 4 days. The average systolic blood pressure for 24 hr, average diastolic blood pressure for 24 hr and average heart rate for 24 hr were calculated on each administration day.

Row | Compound | antihypertensive action (systolic blood pressure, tail cuff) [1] | EC50 [2] [nM] | antihypertensive action (blood pressure, telemetry) [3]
1 | CCc1nc2c(Cl)cc(C)nc2n1Cc1ccc2c(c1)CCc1ccccc1/C2=C(/C)c1noc(=O)[nH]1 [Compound 44, (E)-2-(7-chloro-2-ethyl-5-methyl-3H-imidazo[4,5-b]pyridin-3-yl)methyl-5-[1-(5-oxo-4,5-dihydro-1,2,4-oxadiazol-3-yl)ethylidene]-10,11-dihydro-5H-dibenzo[a,d]cycloheptene] | antihypertensive action | 784 | antihypertensive action
2 | CCc1nc2c(C)ccnc2n1Cc1ccc2c(c1)CCc1ccccc1/C2=C(/C)c1nnn[nH]1 [Compound 47, (E)-2-(2-ethyl-7-methyl-3H-imidazo[4,5-b]pyridin-3-yl)methyl-5-[1-(1H-tetrazol-5-yl)ethylidene]-10,11-dihydro-5H-dibenzo[a,d]cycloheptene] | antihypertensive action | 1930 | antihypertensive action
3 | C/C(=C1\c2ccc(Cn3c(C4CC4)nc4c(Cl)ccnc43)cc2COc2ccccc21)c1noc(=O)[nH]1 [Compound 139, (Z)-8-(7-chloro-2-cyclopropyl-3H-imidazo[4,5-b]pyridin-3-yl)methyl-11-[1-(5-oxo-4,5-dihydro-1,2,4-oxadiazol-3-yl)ethylidene]-6,11-dihydrodibenzo[b,e]oxepine] | antihypertensive action | – | –
4 | CCc1nc2c(C)cc(C)nc2n1Cc1ccc2c(c1)CCc1ccccc1/C2=C\c1noc(=O)[nH]1 [Compound 29, (E)-2-(2-ethyl-5,7-dimethyl-3H-imidazo[4,5-b]pyridin-3-yl)methyl-5-(5-oxo-4,5-dihydro-1,2,4-oxadiazol-3-yl)methylene-10,11-dihydro-5H-dibenzo[a,d]cycloheptene] | antihypertensive action | 326 | antihypertensive action
5 | CCc1nc2c(Cl)ccnc2n1Cc1ccc2c(c1)COc1ccccc1/C2=C(/C)c1noc(=O)[nH]1 [Compound 137, (Z)-8-(7-chloro-2-ethyl-3H-imidazo[4,5-b]pyridin-3-yl)methyl-11-[1-(5-oxo-4,5-dihydro-1,2,4-oxadiazol-3-yl)ethylidene]-6,11-dihydrodibenzo[b,e]oxepine] | antihypertensive action | 1840 | antihypertensive action
6 | C/C(=C1/c2ccccc2CCc2cc(Cn3c(C4CC4)nc4c(Cl)ccnc43)ccc21)c1noc(=O)[nH]1 [Compound 95, (E)-2-(7-chloro-2-cyclopropyl-3H-imidazo[4,5-b]pyridin-3-yl)methyl-5-[1-(5-oxo-4,5-dihydro-1,2,4-oxadiazol-3-yl)ethylidene]-10,11-dihydro-5H-dibenzo[a,d]cycloheptene] | antihypertensive action | 527 | antihypertensive action
7 | CCc1nc2c(C)ccnc2n1Cc1ccc2c(c1)CCc1ccccc1N2C(C)c1nnn[nH]1 (centres unmarked) [Compound 26, 2-(2-ethyl-7-methyl-3H-imidazo[4,5-b]pyridin-3-yl)methyl-5-[1-(1H-tetrazol-5-yl)ethyl]-10,11-dihydro-5H-dibenzo[b,f]azepine] | antihypertensive action | – | –
8 | CCc1nc2c(C)ccnc2n1Cc1ccc2c(c1)CCc1ccccc1/C2=C(/C)c1noc(=O)[nH]1 [Compound 42, (E)-2-(2-ethyl-7-methyl-3H-imidazo[4,5-b]pyridin-3-yl)methyl-5-[1-(5-oxo-4,5-dihydro-1,2,4-oxadiazol-3-yl)ethylidene]-10,11-dihydro-5H-dibenzo[a,d]cycloheptene] | antihypertensive action | 1020 | antihypertensive action
9 | CCc1nc2c(C)cc(C)nc2n1Cc1ccc2c(c1)CCc1ccccc1N2Cc1nnn[nH]1 [Compound S13, 2-(2-ethyl-5,7-dimethyl-3H-imidazo[4,5-b]pyridin-3-yl)methyl-5-(1H-tetrazol-5-yl)methyl-10,11-dihydro-5H-dibenzo[b,f]azepine] | antihypertensive action | 4560 | antihypertensive action
